{"source": "paper PMC10910531", "key": {"[1]": {"assay": "CRE method A: lactone/lactam formation, T3P + DIPEA, internal nucleophile (pyridine/amine) cascade", "conditions": "the molecule shown is the open-chain precursor, CHCl3, 50.0 mM, 22.0 °C"}, "[2]": {"assay": "CRE method B: lactone/thiolactone/lactam formation, EDC.HCl + HOBt + DIPEA", "conditions": "DMF, 100.0 mM, 22.0 °C"}, "[3]": {"assay": "CRE method C: cyclic carbamate/urea formation with triphosgene + Et3N", "conditions": "the molecule shown is the open-chain precursor, CH2Cl2, 100.0 mM, 22.0 °C"}, "[4]": {"assay": "CRE method E: cyclic oxalate-type (1,2-dicarbonyl) formation with oxalyl chloride + Et3N", "conditions": "the molecule shown is the open-chain precursor, CH2Cl2, 50.0 mM, 22.0 °C"}, "[5]": {"assay": "CRE method F: cyclic sulfite/sulfamidite formation with SOCl2 + DMAP", "conditions": "the molecule shown is the open-chain precursor, CH2Cl2, 50.0 mM, 22.0 °C, 18.0 h"}}, "data": [{"smiles": "CC(O)Cc1cccc(-c2ccccc2CC(=O)O)n1", "note": "(stereo not shown) [8 -> 9]", "values": [{"measurement": "ring closure, isolated yield", "setting": "[1]; 10-membered ring, 0.5 h", "result": 90, "unit": "%"}]}, {"smiles": "CC(O)Cc1cccc(-c2ccccc2CC(=O)O)c1", "note": "(stereo not shown) [10 -> 11 (control)]", "values": [{"measurement": "ring closure, isolated yield", "setting": "[1]; 10-membered ring", "result": 0, "unit": "%"}]}, {"smiles": "O=C1OCCCSCc2ccccc21", "note": "[12 -> 13]", "values": [{"measurement": "ring closure, isolated yield", "setting": "[2]; from O=C(O)c1ccccc1CSCCCO, 9-membered ring, 18.0 h", "result": 86, "unit": "%"}]}, {"smiles": "O=C1OCCCCCc2ccccc21", "note": "[14 -> 15 (control)]", "values": [{"measurement": "ring closure, isolated yield", "setting": "[2]; from O=C(O)c1ccccc1CCCCCO, 9-membered ring, 18.0 h", "result": 43, "unit": "%"}]}, {"smiles": "O=C(Cl)N(CCN(CCCO)c1ccccc1)c1ccccc1", "note": "[16 -> 17]", "values": [{"measurement": "ring closure, isolated yield", "setting": "[3]; 9-membered ring, 0.5 h", "result": 62, "unit": "%"}]}, {"smiles": "O=C(Cl)N(CCCCCCO)c1ccccc1", "note": "[18 -> 19 (control)]", "values": [{"measurement": "ring closure, isolated yield", "setting": "[3]; 9-membered ring", "result": 0, "unit": "%"}]}, {"smiles": "CN(CCCO)c1ccccc1N(C)C(=O)C(=O)Cl", "note": "[24 -> 25]", "values": [{"measurement": "ring closure, isolated yield", "setting": "[4]; 10-membered ring, 18.0 h", "result": 73, "unit": "%"}]}, {"smiles": "CN(C(=O)C(=O)Cl)c1ccccc1CCCCO", "note": "[26 -> 27 (control)]", "values": [{"measurement": "ring closure, isolated yield", "setting": "[4]; 10-membered ring, 18.0 h", "result": 9, "unit": "%"}]}, {"smiles": "O=S(Cl)OCCCN(CCCO)Cc1ccccc1", "note": "(stereo not shown) [28 -> 29]", "values": [{"measurement": "ring closure, isolated yield", "setting": "[5]; 10-membered ring", "result": 86, "unit": "%"}]}, {"smiles": "O=S(Cl)OCCCCCCCO", "note": "(stereo not shown) [30 -> 31 (control)]", "values": [{"measurement": "ring closure, isolated yield", "setting": "[5]; 10-membered ring", "result": 8, "unit": "%"}]}, {"smiles": "CNCCCN(C)CCCN(C)C(=O)C(=O)Cl", "note": "[34 -> 98]", "values": [{"measurement": "ring closure, isolated yield", "setting": "[4]; 11-membered ring, 18.0 h", "result": 71, "unit": "%"}]}, {"smiles": "O=C1OCCSCc2ccccc21", "note": "[47]", "values": [{"measurement": "ring closure, isolated yield", "setting": "[2]; from O=C(O)c1ccccc1CSCCO, 8-membered ring", "result": 88, "unit": "%"}]}, {"smiles": "O=C1OCCCSCc2c(Br)cccc21", "note": "[49c]", "values": [{"measurement": "ring closure, isolated yield", "setting": "[2]; from O=C(O)c1cccc(Br)c1CSCCCO, 9-membered ring", "result": 67, "unit": "%"}]}, {"smiles": "O=C1OCCCSCc2c1cccc2[N+](=O)[O-]", "note": "[50]", "values": [{"measurement": "ring closure, isolated yield", "setting": "[2]; from O=C(O)c1cccc([N+](=O)[O-])c1CSCCCO, 9-membered ring, 24.0 h", "result": 47, "unit": "%"}]}, {"smiles": "O=C1OCCCSCc2ccc(F)cc21", "note": "[S30 -> 48]", "values": [{"measurement": "ring closure, isolated yield", "setting": "[2]; from O=C(O)c1cc(F)ccc1CSCCCO, 9-membered ring, 18.0 h", "result": 80, "unit": "%"}]}, {"smiles": "CC1CCSCc2ccccc2C(=O)O1", "note": "(stereo not shown) [S43 -> 51]", "values": [{"measurement": "ring closure, isolated yield", "setting": "[2]; from CC(O)CCSCc1ccccc1C(=O)O, 9-membered ring, 16.0 h", "result": 71, "unit": "%"}]}, {"smiles": "CC(O)Cc1cncc(-c2ccccc2CC(=O)O)n1", "note": "(stereo not shown) [S52 -> 55]", "values": [{"measurement": "ring closure, isolated yield", "setting": "[1]; 10-membered ring, 0.5 h", "result": 90, "unit": "%"}]}, {"smiles": "CN1CCOC(=O)c2ccccc2-c2ccccc21", "note": "[S63 -> 60]", "values": [{"measurement": "ring closure, isolated yield", "setting": "[2]; from CN(CCO)c1ccccc1-c1ccccc1C(=O)O, 9-membered ring, 24.0 h", "result": 72, "unit": "%"}]}, {"smiles": "CN1CCCOC(=O)c2ccccc2-c2ccccc21", "note": "[S67 -> 61]", "values": [{"measurement": "ring closure, isolated yield", "setting": "[2]; from CN(CCCO)c1ccccc1-c1ccccc1C(=O)O, 10-membered ring, 24.0 h", "result": 72, "unit": "%"}]}, {"smiles": "CC1CN(C)c2ccccc2-c2ccccc2C(=O)O1", "note": "(stereo not shown) [S69 -> 62]", "values": [{"measurement": "ring closure, isolated yield", "setting": "[2]; from CC(O)CN(C)c1ccccc1-c1ccccc1C(=O)O, 9-membered ring, 24.0 h", "result": 81, "unit": "%"}]}, {"smiles": "CC1CCN(C)c2ccccc2-c2ccccc2C(=O)O1", "note": "(stereo not shown) [S71 -> 63]", "values": [{"measurement": "ring closure, isolated yield", "setting": "[2]; from CC(O)CCN(C)c1ccccc1-c1ccccc1C(=O)O, 10-membered ring, 24.0 h", "result": 78, "unit": "%"}]}, {"smiles": "C=CCNC(C)Cc1cccc(-c2ccccc2CC(=O)O)n1", "note": "(stereo not shown) [S74 -> 64 (2 steps)]", "values": [{"measurement": "ring closure, isolated yield", "setting": "[1]; 10-membered ring, 0.5 h", "result": 75, "unit": "%"}]}, {"smiles": "CC(Cc1cccc(-c2ccccc2CC(=O)O)n1)Nc1ccccc1", "note": "(stereo not shown) [S77 -> 65 (quantitative)]", "values": [{"measurement": "ring closure, isolated yield", "setting": "[1]; 10-membered ring, 0.5 h", "result": 100, "unit": "%"}]}, {"smiles": "CCNCCCN(CC)Cc1ccccc1C(=O)O", "note": "[S84-derived acid -> 68 (2 steps)]", "values": [{"measurement": "ring closure, isolated yield", "setting": "[1]; 9-membered ring", "result": 54, "unit": "%"}]}, {"smiles": "O=C1SCCCSCc2ccccc21", "note": "[S86 -> 69]", "values": [{"measurement": "ring closure, isolated yield", "setting": "[2]; from O=C(O)c1ccccc1CSCCCS, 9-membered ring, 16.0 h", "result": 65, "unit": "%"}]}, {"smiles": "CN(CCCN)CCCC(=O)O", "note": "[S104-derived amino acid -> 78 (2 steps)]", "values": [{"measurement": "ring closure, isolated yield", "setting": "[1]; 9-membered ring", "result": 65, "unit": "%"}]}, {"smiles": "O=C1c2ccccc2CN(Cc2ccccc2)CC2CCCCN12", "note": "(stereo not shown) [S108 -> 79]", "values": [{"measurement": "ring closure, isolated yield", "setting": "[2]; from O=C(O)c1ccccc1CN(Cc1ccccc1)CC1CCCCN1, 8-membered ring, 18.0 h", "result": 82, "unit": "%"}]}, {"smiles": "CN1CCCC(=O)Oc2ccccc21", "note": "[S114 -> 81 (2 steps)]", "values": [{"measurement": "ring closure, isolated yield", "setting": "[2]; from CN(CCCC(=O)O)c1ccccc1O, 8-membered ring, 18.0 h", "result": 78, "unit": "%"}]}, {"smiles": "CN(C(=O)Cl)c1ccccc1-c1cccc(CCO)n1", "note": "[S124 -> 84]", "values": [{"measurement": "ring closure, isolated yield", "setting": "[3]; 10-membered ring, 18.0 h", "result": 59, "unit": "%"}]}, {"smiles": "CN(c1ccccc1-c1cccc(CCO)n1)S(=O)Cl", "note": "(stereo not shown) [S124 -> 86]", "values": [{"measurement": "ring closure, isolated yield", "setting": "[5]; 10-membered ring", "result": 46, "unit": "%"}]}, {"smiles": "CN(C(=O)Cl)c1ccccc1-c1cccc(CC(O)c2ccccc2)n1", "note": "(stereo not shown) [S126 -> 85 (NMR yield)]", "values": [{"measurement": "ring closure, isolated yield", "setting": "[3]; 10-membered ring, 18.0 h", "result": 34, "unit": "%"}]}, {"smiles": "CC(Cc1cccc(-c2ccccc2CO)n1)N(C(=O)C(=O)Cl)c1ccccc1", "note": "(stereo not shown) [S127 -> 87]", "values": [{"measurement": "ring closure, isolated yield", "setting": "[4]; 12-membered ring, 3.0 h", "result": 71, "unit": "%"}]}, {"smiles": "CC(O)Cc1cccc(-c2ccccc2COS(=O)Cl)n1", "note": "(stereo not shown) [S129 -> 88]", "values": [{"measurement": "ring closure, isolated yield", "setting": "[5]; 11-membered ring", "result": 58, "unit": "%"}]}, {"smiles": "O=S(Cl)OCCCN(CCCO)c1ccccc1", "note": "(stereo not shown) [S130 -> 89]", "values": [{"measurement": "ring closure, isolated yield", "setting": "[5]; 10-membered ring", "result": 40, "unit": "%"}]}, {"smiles": "O=C(Cl)N(CCCN(CCCO)c1ccccc1)c1ccccc1", "note": "[S138 -> 94]", "values": [{"measurement": "ring closure, isolated yield", "setting": "[3]; 10-membered ring, 18.0 h", "result": 78, "unit": "%"}]}, {"smiles": "O=C(Cl)C(=O)N(CCc1cccc(CCNc2ccccc2)n1)c1ccccc1", "note": "[S140 -> 96]", "values": [{"measurement": "ring closure, isolated yield", "setting": "[4]; 11-membered ring, 0.5 h", "result": 51, "unit": "%"}]}, {"smiles": "O=C(Cl)N(CCc1cccc(CCNc2ccccc2)n1)c1ccccc1", "note": "[S140 -> 97]", "values": [{"measurement": "ring closure, isolated yield", "setting": "[3]; 10-membered ring, 18.0 h", "result": 49, "unit": "%"}]}]}
